Broadly, the IC50 is the concentration needed to halve the response being measured. A low value points to inhibition by little substance.

This is an account of results in ChEMBL document CHEMBL1138979, “From pyrroles to pyrrolo[1,2-a]pyrazinones: a new class of mGluR1 antagonists” (Bioorg Med Chem Lett, 2006).

Structures are written as SMILES.

The target in the first test is T1, Metabotropic glutamate receptor 1 (Rattus norvegicus, UniProt P23385). Briefly: Inhibition of rat mGluR1a in CHO cells by CDP-DAG accumulation method upto 100 uM. The test is classed as functional, cell-based.
T1 sequence (P23385 whole entry): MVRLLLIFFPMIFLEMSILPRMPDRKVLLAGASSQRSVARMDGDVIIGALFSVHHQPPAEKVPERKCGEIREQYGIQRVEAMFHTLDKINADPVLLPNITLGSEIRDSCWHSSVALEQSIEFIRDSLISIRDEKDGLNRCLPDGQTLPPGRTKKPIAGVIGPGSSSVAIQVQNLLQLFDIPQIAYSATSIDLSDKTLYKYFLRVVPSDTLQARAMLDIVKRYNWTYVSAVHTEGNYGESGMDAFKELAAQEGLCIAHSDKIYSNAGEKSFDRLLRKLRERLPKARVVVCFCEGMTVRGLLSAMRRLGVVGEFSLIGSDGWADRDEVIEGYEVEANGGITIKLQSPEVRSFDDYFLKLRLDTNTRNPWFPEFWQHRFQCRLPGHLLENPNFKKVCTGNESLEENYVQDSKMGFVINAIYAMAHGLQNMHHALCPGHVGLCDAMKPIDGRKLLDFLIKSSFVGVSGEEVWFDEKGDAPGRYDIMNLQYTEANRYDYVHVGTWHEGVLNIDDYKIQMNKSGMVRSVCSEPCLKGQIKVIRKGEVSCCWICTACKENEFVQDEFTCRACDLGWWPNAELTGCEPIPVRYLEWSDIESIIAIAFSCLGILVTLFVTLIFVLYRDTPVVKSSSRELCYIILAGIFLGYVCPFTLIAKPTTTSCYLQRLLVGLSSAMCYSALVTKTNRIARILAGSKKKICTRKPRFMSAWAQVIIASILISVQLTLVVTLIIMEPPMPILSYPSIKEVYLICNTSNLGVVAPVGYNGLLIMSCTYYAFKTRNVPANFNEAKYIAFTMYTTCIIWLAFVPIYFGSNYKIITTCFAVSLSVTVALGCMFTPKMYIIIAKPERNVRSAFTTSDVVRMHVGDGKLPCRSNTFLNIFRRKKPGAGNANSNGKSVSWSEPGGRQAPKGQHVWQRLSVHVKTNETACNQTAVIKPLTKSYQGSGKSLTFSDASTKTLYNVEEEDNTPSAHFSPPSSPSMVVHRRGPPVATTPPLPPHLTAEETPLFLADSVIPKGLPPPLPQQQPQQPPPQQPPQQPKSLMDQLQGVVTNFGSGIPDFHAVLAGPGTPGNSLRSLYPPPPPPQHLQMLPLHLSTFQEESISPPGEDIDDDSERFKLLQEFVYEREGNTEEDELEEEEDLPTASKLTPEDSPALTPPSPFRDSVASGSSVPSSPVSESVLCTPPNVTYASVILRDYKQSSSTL
Regarding `Cc1c(C(=O)OC(C)C(C)(C)C)cn2c1C(=O)N(CCCN)CC2` (stereo unspecified), the IC50 result is given as “Not Active”.
On the same count and under the same terms, the entry for `Cc1c(C(=O)OC(C)C(C)(C)C)cn2c1C(=O)NCC2` (stereo unspecified) is “Not Active”.

For another test, the target named is T1, Metabotropic glutamate receptor 1. Briefly: Inhibition of rat mGluR1a in CHO cells by CDP-DAG accumulation method. The test is classed as functional, cell-based.
For `Cc1c(C(=O)OC(C)C(C)(C)C)cn2c1C(=O)N(CCNC(=O)OC(C)(C)C)CC2` (stereo unspecified), the IC50 is 398 nM.
On to `Cc1c(C(=O)OC(C)C(C)(C)C)cn2c1C(=O)N(CCCN(C)C(=O)c1ccncc1)CC2` (stereo unspecified), for which the IC50 is 3160 nM.
Same read-out and setting: next, `CCNC(=O)NCCCN1CCn2cc(C(=O)OC(C)C(C)(C)C)c(C)c2C1=O` (stereo unspecified): 398 nM; `COCCN1CCn2cc(C(=O)OC(C)C(C)(C)C)c(C)c2C1=O` (stereo unspecified): 251 nM.
Compound `Cc1c(C(=O)OC(C)C(C)(C)C)cn2c1C(=O)N(Cc1ccccc1)CC2` (stereo unspecified) showed an IC50 of 251 nM.
Still for that read-out and setting: next, `C=CCN1CCn2cc(C(=O)OC(C)C(C)(C)C)c(C)c2C1=O` (stereo unspecified): 20 nM; `CC(=O)NCCCN1CCn2cc(C(=O)OC(C)C(C)(C)C)c(C)c2C1=O` (stereo unspecified): 501 nM; `Cc1c(C(=O)OC(C)C(C)(C)C)cn2c1C(=O)N(N1CCOCC1)CC2` (stereo unspecified): 3160 nM.
The same measure, in the same setting: next, `Cc1c(C(=O)OC(C)C(C)(C)C)cn2c1C(=O)N(CCF)CC2` (stereo unspecified): 20 nM; `Cc1c(C(=O)OC(C)C(C)(C)C)cn2c1C(=O)N(CCCNC(=O)c1ccncc1)CC2` (stereo unspecified): 398 nM.
On to `Cc1c(C(=O)OC(C)C(C)(C)C)cn2c1C(=O)N(CC(F)F)CC2` (stereo unspecified), for which the half-maximal inhibitory concentration (IC50) is 25.1 nM.
As to `Cc1c(C(=O)OC(C)C(C)(C)C)cn2c1C(=O)N(CCCN1C(=O)c3ccccc3C1=O)CC2` (stereo unspecified), the IC50 was 15.8 nM.
On the same count and under the same terms, the figure for `CCCN1CCn2cc(C(=O)OC(C)C(C)(C)C)c(C)c2C1=O` (stereo unspecified) is 39.8 nM; for `Cc1c(C(=O)OC(C)C(C)(C)C)cn2c1C(=O)N(CC1CC1)CC2` (stereo unspecified) it is 20 nM.
